Measurements from US10907099B2, “Compound, composition, cured object, optically anisotropic body, and reflective film” (FUJIFILM Corporation, priority 2016, dated 2021).

Legend:
[1] = Measurement of light fastness (residual rate after ultraviolet irradiation); assay type: physicochemical; conditions: for Evaluation of light fastness: 5 mg in acetonitrile 20 ml, 1 cm quartz cell, ultraviolet light 3 J/cm^2, residual rate by liquid chromatography; for light fastness (in words): based on the results in Table 1
Description: Each (5 mg) of the compounds was dissolved in acetonitrile (20 ml), sealed in a 1 cm quartz cell, and the quartz cell was irradiated with ultraviolet light under a condition of 3 J/cm^2 using EXECURE 3000-W manufactured by HOYA-SCHOTT CORPORATION, so that a residual rate of each compound was measured. Amounts (masses) of each compound before and after light irradiation were calculated using liquid chromatography. In the table, “A” represents a residual rate of equal to or greater than 80%, “B” represents a residual rate of equal to or greater than 50% and less than 80%, and “C” represents a residual rate of less than 50%.

[2] = Solubility measurement in ethyl methyl ketone; assay type: physicochemical; conditions: concentration (% by mass) of compound completely dissolved in ethyl methyl ketone
Description: Ethyl methyl ketone was added dropwise to each of the compounds, and a concentration (% by mass) of the compound in the obtained ethyl methyl ketone solution in a case where the compound was completely dissolved in the solution was measured as “solubility”. It is intended that a higher numerical value of solubility indicates excellent solubility in ethyl methyl ketone.

| light fastness (in words) [1] | Solubility (MEK) [2] [%] | SMILES | Evaluation of light fastness [1] |
| --- | --- | --- | --- |
| excellent in light fastness | 2 | C=CC(=O)OCCCCOc1ccc(C#Cc2ccc(NC(=O)C(=O)Nc3ccc(C#Cc4ccc(OCCCCOC(=O)C=C)cc4)cc3C(F)(F)F)c(C(F)(F)F)c2)cc1 [Compound a-1] | A (residual rate of equal to or greater than 80%) |
| excellent in light fastness | 14 | C=CC(=O)OCCCCOc1ccc(C#Cc2cc(C)c(NC(=O)C(=O)Nc3ccc(C#Cc4ccc(OCCCCOC(=O)C=C)cc4)cc3C(F)(F)F)c(C)c2)cc1 [Compound a-2] | A (residual rate of equal to or greater than 80%) |

| SMILES | light fastness (in words) [1] | Solubility (MEK) [2] [%] | Evaluation of light fastness [1] |
| --- | --- | --- | --- |
| C=CC(=O)OCCCCCCOc1ccc(C(=O)Oc2ccc(C#Cc3ccc(CCCCCCC)cc3)cc2)cc1 [Comparative Compound b-1, reference compound] | does not satisfy the desired requirement for light fastness | – | C (residual rate of less than 50%) |
